Laboratory results taken from patent US20250032430A1, “USES OF RHODOQUINONE FOR THE TREATMENT OF DISEASE” (Whitehead Institute for Biomedical Research, priority 2021, published 2025).

Tests used:
[1] = target: T1, SDH complex (Homo sapiens, UniProt O14521+P21912+P31040+Q99643); assay: SDH forward/reverse activity (succinate oxidation, fumarate reduction) by stable isotope tracing in cells; assay type: cell-based
T1 construct: endogenous in cells; host or cells: 143B cells (A5: live cells; A6: permeabilized mitochondria purified from them)
T1 sequence (P31040 43-664): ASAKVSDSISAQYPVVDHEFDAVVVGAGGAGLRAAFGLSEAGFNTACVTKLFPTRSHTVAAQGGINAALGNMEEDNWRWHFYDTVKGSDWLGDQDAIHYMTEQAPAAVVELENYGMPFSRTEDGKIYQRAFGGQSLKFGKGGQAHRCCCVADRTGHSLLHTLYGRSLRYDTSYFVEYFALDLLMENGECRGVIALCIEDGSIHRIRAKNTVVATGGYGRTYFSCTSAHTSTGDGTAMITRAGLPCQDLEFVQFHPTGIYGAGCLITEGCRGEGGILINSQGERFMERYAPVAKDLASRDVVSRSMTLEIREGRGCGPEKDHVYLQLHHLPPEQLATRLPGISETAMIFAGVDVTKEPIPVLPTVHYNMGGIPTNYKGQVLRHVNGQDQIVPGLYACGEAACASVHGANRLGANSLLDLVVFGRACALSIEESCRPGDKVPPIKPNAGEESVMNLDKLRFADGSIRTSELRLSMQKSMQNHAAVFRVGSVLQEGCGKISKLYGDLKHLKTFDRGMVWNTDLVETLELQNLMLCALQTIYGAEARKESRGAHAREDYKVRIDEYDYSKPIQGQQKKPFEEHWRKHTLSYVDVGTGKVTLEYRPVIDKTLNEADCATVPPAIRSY
T1 sequence (P21912 29-280): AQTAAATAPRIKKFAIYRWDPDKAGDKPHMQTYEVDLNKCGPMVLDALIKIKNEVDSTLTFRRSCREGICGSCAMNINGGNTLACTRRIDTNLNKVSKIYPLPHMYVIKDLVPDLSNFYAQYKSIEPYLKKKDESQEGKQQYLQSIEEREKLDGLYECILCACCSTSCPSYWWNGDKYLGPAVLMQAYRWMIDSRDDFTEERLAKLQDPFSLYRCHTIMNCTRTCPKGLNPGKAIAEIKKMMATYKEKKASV
T1 sequence (Q99643 30-169): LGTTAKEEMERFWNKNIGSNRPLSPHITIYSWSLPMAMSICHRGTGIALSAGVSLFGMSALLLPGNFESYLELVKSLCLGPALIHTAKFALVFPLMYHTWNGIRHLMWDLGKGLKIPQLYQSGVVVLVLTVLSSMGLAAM
T1 sequence (O14521 57-159): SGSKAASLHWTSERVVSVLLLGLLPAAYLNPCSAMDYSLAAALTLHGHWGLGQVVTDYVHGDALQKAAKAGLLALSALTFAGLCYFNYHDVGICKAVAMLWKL
Description: Fumarate reduction can be monitored in cells by the stable isotope tracing of either ^13C4-aspartate or ^13C5^15N2-glutamine. ^13C4-aspartate contributes to the fumarate pool via oxaloacetate and malate and so should lead to the production of ^13C4-succinate upon fumarate reduction (FIG. 2B). ^13C5^15N2-glutamine contributes to the fumarate pool through the reductive arm of the TCA cycle via glutamate, α-ketoglutarate, isocitrate, citrate, oxaloacetate, and malate. A key distinction between the two labeling approaches is that ^13C5^15N2-glutamine enriches the fumarate pool more upon antimycin treatment due to enhanced reductive carboxylation flux, whereas ^13C4-aspartate labels the fumarate pool to equivalent extents in vehicle and antimycin-treated cells (FIG. 2C). Therefore, with stable isotope tracing of ^13C4-aspartate, the level of ^13C4-succinate is a direct measure of fumarate reduction, whereas the stable isotope tracing of ^13C5^15N2-glutamine requires a ratiometric analysis of labeled succinate to labeled fumarate to normalize for differences in the extent of fumarate labeling.
To test if hypoxia triggers electron leakage onto fumarate or a net-reversal of the SDH complex, the ^13C5^15N2-glutamine tracer was utilized, which enables simultaneous quantification of the forward and reverse activities of SDH through the generation of unique isotopologues upon flux through the oxidative arm (α-ketoglutarate to succinate) compared to the reductive arm (α-ketoglutarate—via citrate—to fumarate) of the TCA cycle (FIG. 2E). In this assay, the forward (succinate oxidation) reaction was defined as the ratio of percent labeled ^13C4-fumarate to its precursor ^13C4-succinate (FIG. 2E) and the reverse (fumarate reduction) as that of percent labeled ^13C3-succinate to its precursor ^13C3-fumarate (FIG. 2E). This type of analysis can be performed when the labeling is in the steady-state, which was determined to be after 4-8 hours of incubation with ^13C5^15N2-glutamine (FIG. S2E-F). This ratiometric analysis of the succinate and fumarate isotopologues eliminates potential biases in the assay, such as higher ^13C3-fumarate labeling in antimycin-treated cells caused increased reductive carboxylation flux (FIG. S2E).
Stable isotope tracing in cells: Cells were seeded 24 hours prior to the experiment in 6-well dishes at 70% density. For stable isotope tracing of glutamine, glutamine-free DMEM (ThermoFisher) was supplemented with 2 mM ^13C5^15N2-glutamine (Sigma), 1 mM pyruvate, 5% FBS, 1% P/S, 0.1 mg/mL uridine. For stable isotope tracing of aspartate, DMEM containing 5% FBS, and 1% penicillin and streptomycin, and 0.1 mg/mL uridine (Sigma) was supplemented with the designated amount of 13C4-aspartate (Sigma) and the pH adjusted to 7.4. Uridine was left out of the media for stable isotope tracing experiments measuring nucleotide biosynthesis. Unless otherwise stated, for all experiments, cells were treated for 8 hours and metabolites were isolated as described below. Relevant compounds were added at the start of the incubation periods.

[2] = test system: SDH complex; assay: SDH activity assay in permeabilized purified mitochondria; assay type: biochemical, human
Protocol: SDH activity was examined in permeabilized purified mitochondria. The rate of succinate oxidation was measured by monitoring fumarate production over time after initiating the reaction with succinate. The rate of fumarate reduction was measured in a separate assay by monitoring the rate of succinate production over time after initiating the reaction with fumarate and NADH. […] Moreover, complex I inhibition by piericidin suppressed the fumarate reduction caused by antimycin treatment (FIG. 2I).
Isolation of Mitochondria for Biochemical Assays: 143B cells were scraped and pelleted at 1000×g for 5 minutes. Cell pellets were washed in 1×PBS and pelleted at 1000×g for 5 minutes. For tissue samples, approximately 100 mg of tissue powder was weighed out. Tissue powder or cells were re-suspended in isolation buffer (200 mM sucrose, 10 mM Tris HCl, 1 mM EGTA/Tris, pH 7.4 (adjusted with 1M HEPES)), transferred into an ice-cold glass homogenizer (VWR), and dounced with 15-30 strokes. Homogenates were transferred into tubes and spun at 600×g for 10 minutes at 4° C. Supernatants were moved to a new tube and centrifugation was repeated. Then, supernatants were moved to a new tube and pelleted at 7,000×g for 10 minutes at 4° C. Pellets were washed in isolation buffer and centrifugation was repeated. Pellets were subsequently stored at −80° C. until use.
SDH Activity Assay: Purified mitochondria were re-suspended in buffer (0.22 M Mannitol, 0.075 M Sucrose, 1 mM EDTA, 10 mM HEPES pH 7.4, and one complete Protease inhibitor tablet (Sigma)) to a concentration of 5 mg/mL and underwent 5 freeze-thaw cycles to permeabilize them. 30 μg mitochondria (6 uL) were diluted 1:10 (in 54 uL) of SDH activity assay buffer (27.5 mM KH2PO4 pH 7.4, 1.1 mM CoQ-10 (Sigma), 3.5 g/L BSA). Reactions were supplemented with DMSO, 1 μM antimycin, or 1 μM piericidin and pre-incubated at 37° C. for 10 minutes. […] Samples were centrifuged at 16,000×g for 10 minutes at 4° C. and supernatants were dried down and analyzed by LC-MS for succinate and fumarate.

[3] = test system: liver, kidney, heart, and skeletal muscle; assay: Ex vivo O2 consumption of mouse tissues
Protocol: Oxygen Consumption Rate (Seahorse): Respiration was measured on intact 143B cells and on mitochondria purified from tissue on the Seahorse XFe-96 Analyzer (Seahorse Bioscience). Cells were incubated in a non-CO2 37° C. incubator in serum-free Seahorse XF RPMI Media (Seahorse Bioscience, Catalog #103336) supplemented with 5 mM glucose, 2 mM glutamine, and 1 mM pyruvate. Oxygen consumption rate (OCR) was measured over a period of 30 minutes. Oxygen consumption rate was also measured on mitochondria purified from mouse tissues. Mitochondria were incubated in MAS buffer (70 mM sucrose, 220 mM mannitol, 10 mM KH2PO4, 5 mM MgCl2, 2 mM HEPES pH 7.2, 1 mM EGTA, 2% BSA) supplemented with 2 mM ADP, 5 mM glutamate, 5 mM malate, 5 mM pyruvate, and 2.5 mM succinate. Oxygen consumption rate (OCR) was measured over a period of 30 minutes.

[4] = 13C5 15N2-glutamine tracing, 143B cells

Row | Substance | terminal electron acceptor use in the mammalian ETC ([1]; rhodoquinone generated by RquA expression in cells) | fumarate reduction (succinate production over time) ([2]; purified permeabilized mitochondria from WT and RquA-expressing cells, fumarate and NADH, absence of antimycin) | fumarate reduction (SDH reverse activity) [1, 4] | succinate oxidation (SDH forward activity) [1, 4] | conversion of fumarate into succinate (13C4-succinate production, 13C4-aspartate tracing) ([1]; WT 143B cells, 500 nM antimycin) | ratio of isotopologues: fumarate reduction over succinate oxidation ([1]; antimycin treatment (also hypoxia exposure)) | fumarate reduction and succinate oxidation reactions ([1]; cells lacking SDHA or SDHB) | rate of succinate oxidation versus fumarate reduction (vehicle: succinate oxidation higher) ([2]; permeabilized purified mitochondria, 1 μM antimycin) | O2 consumption [3]
1 | rhodoquinone | promotes the use of fumarate as a terminal electron acceptor | sufficient to drive fumarate reduction |  |  |  |  |  |  | 
2 | antimycin |  |  | increased | decreased | robustly stimulated | approximately 4 fold | not altered | the opposite was the case | ablated
